Reference: ChEMBL document CHEMBL4765292, “Flexible diaminodihydrotriazine inhibitors of Plasmodium falciparum dihydrofolate reductase: Binding strengths, modes of binding and their antimalarial activities” (Eur J Med Chem, 2020)

Columns and labels:
[1] = tested on: DHFR (human against Plasmodium falciparum DHFR); assay: Selectivity index, ratio of Ki for human DHFR expressed in Escherichia coli BL21 to Ki for Plasmodium falciparum DHFR expressed in Escherichia coli BL21; format: toxicity; conditions: read-out: Ratio Ki
Plasmodium falciparum [2] = assay: Antimalarial activity against Plasmodium falciparum V1/S harboring DHFR N51I/C59R/S108N/I164L mutant infected in human erythrocytes assessed as reduction in [3H]-hypoxanthine incorporation pretreated for 20 hrs followed by [3H]-hypoxanthine addition measured after 20 hrs by radioactivity method; format: functional, organism-based; conditions: Erythrocyte
[3] = Inhibition of Plasmodium falciparum DHFR N51I/C59R/S108N mutant expressed in Escherichia coli BL21 using DHF as substrate by spectrophotometric analysis
Plasmodium falciparum [4] = assay: Antimalarial activity against Plasmodium falciparum TM4/8.2 infected in human erythrocytes assessed as reduction in [3H]-hypoxanthine incorporation pretreated for 20 hrs followed by [3H]-hypoxanthine addition measured after 20 hrs by radioactivity method; format: functional, organism-based
Vero = assay: Cytotoxicity against African green monkey Vero cells assessed as reduction in cell viability incubated for 72 hrs by SRB assay; format: cell-based; conditions: Chlorocebus sabaeus
[5] = Inhibition of Plasmodium falciparum DHFR […] mutant expressed in Escherichia coli BL21 using DHF as substrate by spectrophotometric analysis
Plasmodium falciparum [6] = assay: Antimalarial activity against Plasmodium falciparum CsI-2 harboring DHFR C59R/S108N/I164L mutant infected in human erythrocytes assessed as reduction in [3H]-hypoxanthine incorporation pretreated for 20 hrs followed by [3H]-hypoxanthine addition measured after 20 hrs by radioactivity method; format: functional, organism-based; conditions: CsI-2, Erythrocyte
[7] = Inhibition of Plasmodium falciparum DHFR C59R/S108N/I164L mutant expressed in Escherichia coli BL21 using DHF as substrate by spectrophotometric analysis
[8] = Inhibition of Plasmodium falciparum DHFR N51I/C59R/S108N/I164L mutant expressed in Escherichia coli BL21 using DHF as substrate by spectrophotometric analysis
Plasmodium falciparum [9] = assay: Antimalarial activity against Plasmodium falciparum T9/94 RC17 harboring DHFR A16V/S108T mutant infected in human erythrocytes assessed as reduction in [3H]-hypoxanthine incorporation pretreated for 20 hrs followed by [3H]-hypoxanthine addition measured after 20 hrs by radioactivity method; format: functional, organism-based; conditions: T9/94 RC17, Erythrocyte
[10] = tested on: DHFR (human against Plasmodium falciparum DHFR N51I/C59R/S108N/I164L mutant); assay: Selectivity index, ratio of Ki for human DHFR expressed in Escherichia coli BL21 to Ki for Plasmodium falciparum DHFR N51I/C59R/S108N/I164L mutant expressed in Escherichia coli BL21; format: toxicity; conditions: read-out: Ratio Ki
[11] = Inhibition of Plasmodium falciparum DHFR A16V/S108T mutant expressed in Escherichia coli BL21 using DHF as substrate by spectrophotometric analysis
[12] = Therapeutic index, ratio of IC50 for African green monkey Vero cells to IC50 for Plasmodium falciparum TM4/8.2; format: toxicity; conditions: against Plasmodium falciparum TM4/8.2, read-out: Ratio IC50
[13] = Therapeutic index, ratio of IC50 for African green monkey Vero cells to IC50 for Plasmodium falciparum V1/S harboring DHFR N51I/C59R/S108N/I164L mutant; format: toxicity; conditions: read-out: Ratio IC50
[14] = tested on: DHFR (human against Plasmodium falciparum DHFR double mutant); assay: Selectivity index, ratio of Ki for human DHFR expressed in Escherichia coli BL21 to Ki for Plasmodium falciparum DHFR double mutant expressed in Escherichia coli BL21; format: toxicity; conditions: read-out: Ratio Ki
Plasmodium falciparum [15] = assay: Antimalarial activity against Plasmodium falciparum W2 harboring DHFR N51I/C59R/S108N mutant infected in human erythrocytes assessed as reduction in [3H]-hypoxanthine incorporation pretreated for 20 hrs followed by [3H]-hypoxanthine addition measured after 20 hrs by radioactivity method; format: functional, organism-based; conditions: W2, Erythrocyte
[16] = Therapeutic index, ratio of IC50 for African green monkey Vero cells to IC50 for Plasmodium falciparum K1CB1 harboring DHFR […] mutant; format: toxicity; conditions: read-out: Ratio IC50
Plasmodium falciparum [17] = assay: Antimalarial activity against Plasmodium falciparum K1CB1 harboring DHFR […] mutant infected in human erythrocytes assessed as reduction in [3H]-hypoxanthine incorporation pretreated for 20 hrs followed by [3H]-hypoxanthine addition measured after 20 hrs by radioactivity method; format: functional, organism-based; conditions: K1CB1, Erythrocyte
[18] = Inhibition of Plasmodium falciparum DHFR expressed in Escherichia coli BL21 using DHF as substrate by spectrophotometric analysis
[19] = Inhibition of Plasmodium falciparum DHFR using DHF as substrate by spectrophotometric analysis

SMILES	selectivity ratio [1]	IC50 (Plasmodium falciparum [2]) [nM]	Ki [3] [nM]	IC50 (Plasmodium falciparum [4]) [nM]	IC50 (Vero) [µM]	Ki [5] [nM]	IC50 (Plasmodium falciparum [6]) [nM]	Ki [7] [nM]	Ki [8] [nM]	IC50 (Plasmodium falciparum [9]) [nM]	selectivity ratio [10]	Ki [11] [nM]	selectivity ratio [12]	selectivity ratio [13]	selectivity ratio [14]	IC50 (Plasmodium falciparum [15]) [nM]	selectivity ratio [16]	IC50 (Plasmodium falciparum [17]) [nM]	Ki [18] [nM]	Ki [19] [nM]
CC1(C)N=C(N)N=C(N)N1OCCCOc1cccc(Cl)c1Cl	39	5.2	0.7	0.35	9.71	1	3.9	1.4	1.1	0.21	21	1.3	27700	1870	24	0.82	5110	1.9	0.6	
CC1(C)N=C(N)N=C(N)N1OCCCOc1cc(Cl)c(Cl)cc1Cl	29	18	1.1	0.57	> 1	0.6	3.8	0.4	1.9	0.34	8		> 1750	> 56	24	4.2	> 435	2.3		0.5
CC1(C)N=C(N)N=C(N)N1OCCCCc1ccccc1	139	590	0.7	33	27.1	0.7	46	2.2	3.7	3.7	11	2	821	46	60	44	874	31	0.3	
CC1N=C(N)N=C(N)N1OCCCOc1cc(Cl)c(Cl)cc1Cl (stereo unspecified)	79	300	0.4	2.3	46	0.5	48	0.5	0.6	0.32	40		20000	153	47	35	2420	19		0.3
CC1(C)N=C(N)N=C(N)N1OCCCOc1ccccc1	52	53	0.8	0.37	33.3	1	32	1.4	1.9	0.59	19	1.5	90000	628	36	5.9	6170	5.4	0.7	
CC1(C)N=C(N)N=C(N)N1OCCCNc1ccc(Cl)c(Cl)c1	40	740	0.9	4.5	> 50	0.8	390	1.4	5.1	17	9	3.7	> 11100	> 68	61	58	> 11100	45	1.2	
CC1(C)N=C(N)N=C(N)N1OCCCSc1ccc(Cl)cc1	40	260	0.7	0.6	18.1	0.9	37	0.9	0.8	1.8	30	3.1	30200	70	26	5.4	2970	6.1	0.6	
CC1(C)N=C(N)N=C(N)N1OCCCSc1ccccc1Cl	35	44	0.7	0.48	14.6	1.1	4.4	0.9	1	0.73	21	1.9	30400	332	19	3.3	4060	3.6	0.6	
NC1=NC(c2ccccc2)N(OCCCOc2cc(Cl)c(Cl)cc2Cl)C(N)=N1 (stereo unspecified)	242	480	1.6	5.1	25.1	1.9	340	0.3	0.7	3.2	207		4920	52	76	60	570	44		0.6
CC1(C)NC(N)=NC(=N)N1OCCCSc1ccccc1	58	64	0.3	0.52	63.8	0.8	39	0.4		0.58	58	1	123000	997	36	9.9	13300	4.8	0.5	
